According to ChEMBL document CHEMBL3044672, “N9- and N7-(Chloromethyl Phenymethyl)Chloropurine Derivatives from , '-Dichloroxylenes: Synthesis and Anticancer Activity” (2005):

Assays:
Assay type in all cases: functional
SF-539 = assay: Cytotoxicity against Homo sapiens (human) SF539 cells after 48 hr by sulforhodamine B assay; conditions: SF-539, 48 h
RXF 393 = assay: Cytotoxicity against Homo sapiens (human) RXF393 cells after 48 hr by sulforhodamine B assay; conditions: RXF 393, 48 h; for CC50: read-out: LC50 (the source's name)
SK-MEL-5 = assay: Cytotoxicity against Homo sapiens (human) SK-MEL-5 cells after 48 hr by sulforhodamine B assay; conditions: SK-MEL-5, 48 h
MDA-MB-231 = assay: Cytotoxicity against Homo sapiens (human) MDA-MB-231 cells after 48 hr by sulforhodamine B assay; conditions: MDA-MB-231, 48 h
UO-31 = assay: Cytotoxicity against Homo sapiens (human) UO31 cells after 48 hr by sulforhodamine B assay; conditions: UO-31, 48 h
SW-620 = assay: Cytotoxicity against Homo sapiens (human) SW620 cells after 48 hr by sulforhodamine B assay; conditions: SW-620, 48 h; for CC50: read-out: LC50 (the source's name)
A549 = assay: Cytotoxicity against Homo sapiens (human) A549 cells after 48 hr by sulforhodamine B assay; conditions: A549, 48 h; for CC50: read-out: LC50 (the source's name)
A498 = assay: Cytotoxicity against Homo sapiens (human) A498 cells after 48 hr by sulforhodamine B assay; conditions: A498, 48 h
KM12 = assay: Cytotoxicity against Homo sapiens (human) KM12 cells after 48 hr by sulforhodamine B assay; conditions: KM12, 48 h; for CC50: read-out: LC50 (the source's name)
SF-295 = assay: Cytotoxicity against Homo sapiens (human) SF295 cells after 48 hr by sulforhodamine B assay; conditions: SF-295, 48 h; for CC50: read-out: LC50 (the source's name)
OVCAR-3 = assay: Cytotoxicity against Homo sapiens (human) OVCAR3 cells after 48 hr by sulforhodamine B assay; conditions: OVCAR-3, 48 h
786-0 = assay: Cytotoxicity against Homo sapiens (human) 786-0 cells after 48 hr by sulforhodamine B assay; conditions: 786-0, 48 h
RPMI-8226 = assay: Cytotoxicity against Homo sapiens (human) RPMI8226 cells after 48 hr by sulforhodamine B assay; conditions: RPMI-8226, 48 h; for CC50: read-out: LC50 (the source's name)
HCC 2998 = assay: Cytotoxicity against Homo sapiens (human) HCC2998 cells after 48 hr by sulforhodamine B assay; conditions: HCC 2998, 48 h; for CC50: read-out: LC50 (the source's name)
SK-MEL-2 = assay: Cytotoxicity against Homo sapiens (human) SK-MEL-2 cells after 48 hr by sulforhodamine B assay; conditions: SK-MEL-2, 48 h
PC-3 = assay: Cytotoxicity against Homo sapiens (human) PC3 cells after 48 hr by sulforhodamine B assay; conditions: PC-3, 48 h
HOP-62 = assay: Cytotoxicity against Homo sapiens (human) HOP62 cells after 48 hr by sulforhodamine B assay; conditions: HOP-62, 48 h; for CC50: read-out: LC50 (the source's name)
SK-OV-3 = assay: Cytotoxicity against Homo sapiens (human) SKOV3 cells after 48 hr by sulforhodamine B assay; conditions: SK-OV-3, 48 h
NCI-H322M = assay: Cytotoxicity against Homo sapiens (human) NCI-H322M cells after 48 hr by sulforhodamine B assay; conditions: for CC50: read-out: LC50 (the source's name)
IGROV-1 = assay: Cytotoxicity against Homo sapiens (human) IGROV1 cells after 48 hr by sulforhodamine B assay; conditions: IGROV-1, 48 h
SF-268 = assay: Cytotoxicity against Homo sapiens (human) SF268 cells assessed as cell growth at 10^-4 M after 48 hr by […] assay; conditions: SF-268, 48 h, read-out: Activity
UACC-62 = assay: Cytotoxicity against Homo sapiens (human) UACC62 cells after 48 hr by sulforhodamine B assay; conditions: UACC-62, 48 h
T47D = assay: Cytotoxicity against Homo sapiens (human) T47D cells after 48 hr by sulforhodamine B assay
EKVX = assay: Cytotoxicity against Homo sapiens (human) EKVX cells after 48 hr by sulforhodamine B assay; conditions: for CC50: read-out: LC50 (the source's name)
DU-145 = assay: Cytotoxicity against Homo sapiens (human) DU145 cells after 48 hr by sulforhodamine B assay; conditions: DU-145, 48 h
MOLT-4 = assay: Cytotoxicity against Homo sapiens (human) MOLT4 cells after 48 hr by sulforhodamine B assay; conditions: MOLT-4, 48 h
OVCAR-4 = assay: Cytotoxicity against Homo sapiens (human) OVCAR4 cells after 48 hr by sulforhodamine B assay; conditions: OVCAR-4, 48 h
HCT-116 = assay: Cytotoxicity against Homo sapiens (human) HCT116 cells after 48 hr by sulforhodamine B assay; conditions: HCT-116, 48 h
ACHN = assay: Cytotoxicity against Homo sapiens (human) ACHN cells after 48 hr by sulforhodamine B assay
LOX IMVI = assay: Cytotoxicity against Homo sapiens (human) LOXIMVI cells after 48 hr by sulforhodamine B assay
HCT-15 = assay: Cytotoxicity against Homo sapiens (human) HCT15 cells after 48 hr by sulforhodamine B assay; conditions: HCT-15, 48 h
CCRF-CEM = assay: Cytotoxicity against Homo sapiens (human) CCRF-CEM cells after 48 hr by sulforhodamine B assay
[1] = read-out: LC50 (the source's name)

ClCc1ccc(Cn2cnc3ncnc(Cl)c32)cc1
GI50 (SF-539): 2.08 µM
LC50 (concentration killing 50% of cells) (SF-539): 6.76 µM
TGI (SF-539): 3.71 µM
GI50 (RXF 393): 1.65 µM
TGI (RXF 393): 4.16 µM
CC50 (RXF 393): 12 µM
GI50 (SK-MEL-5): 2.81 µM
LC50 (SK-MEL-5): 34.7 µM
TGI (SK-MEL-5): 12 µM
GI50 (MDA-MB-231): 1.77 µM
LC50 (MDA-MB-231): 6.3 µM
TGI (MDA-MB-231): 3.38 µM
GI50 (UO-31): 4.78 µM
LC50 (concentration causing 50% net cell kill) (UO-31): > 100 µM
TGI (UO-31): 66.1 µM
GI50 (SW-620): 2.57 µM
TGI (SW-620): 7.24 µM
CC50 (SW-620): 32.4 µM
GI50 (A549): 1.81 µM
TGI (A549): 4.16 µM
CC50 (A549): 9.33 µM
GI50 (A498): 1.81 µM
LC50 (lethal concentration, 50% cell kill) (A498): 6.3 µM
TGI (A498): 3.38 µM
GI50 (KM12): 1.65 µM
TGI (KM12): 3.38 µM
CC50 (KM12): 7.07 µM
GI50 (SF-295): 2.04 µM
TGI (SF-295): 5.01 µM
CC50 (SF-295): 17 µM
GI50 (OVCAR-3): 1.81 µM
LC50 (OVCAR-3): 6.3 µM
TGI (OVCAR-3): 3.38 µM
GI50 (786-0): 1.69 µM
LC50 (786-0): 5.49 µM
TGI (786-0): 3.01 µM
GI50 (RPMI-8226): 1.28 µM
TGI (RPMI-8226): 2.69 µM
CC50 (RPMI-8226): 5.62 µM
GI50 (HCC 2998): 1.41 µM
TGI (HCC 2998): 2.88 µM
CC50 (HCC 2998): 5.75 µM
GI50 (SK-MEL-2): 6.3 µM
LC50 (concentration killing 50% of cells) (SK-MEL-2): > 100 µM
TGI (SK-MEL-2): > 100 µM
GI50 (PC-3): 1.58 µM
LC50 (concentration causing 50% cell kill) (PC-3): 5.37 µM
TGI (PC-3): 2.95 µM
GI50 (HOP-62): 1.77 µM
TGI (HOP-62): 3.16 µM
CC50 (HOP-62): 5.62 µM
GI50 (SK-OV-3): 11.2 µM
LC50 (SK-OV-3): 47.9 µM
TGI (SK-OV-3): 23.4 µM
GI50 (NCI-H322M): 1.62 µM
TGI (NCI-H322M): 3.01 µM
CC50 (NCI-H322M): 5.62 µM
GI50 (IGROV-1): 7.58 µM
LC50 (IGROV-1): > 100 µM
TGI (IGROV-1): 30.9 µM
growth at 100 µM (SF-268): 1%
GI50 (UACC-62): 2.51 µM
LC50 (concentration causing 50% net cell kill) (UACC-62): 34.7 µM
TGI (UACC-62): 12 µM
GI50 (T47D): 1.28 µM
LC50 (T47D): 6.3 µM
TGI (T47D): 2.88 µM
GI50 (EKVX): 2.23 µM
TGI (EKVX): 4.46 µM
CC50 (EKVX): 8.7 µM

ClCc1cccc(Cn2cnc3c(Cl)nc(Cl)nc32)c1
GI50 (SF-539): 2.18 µM
LC50 (concentration killing 50% of cells) (SF-539): 40.7 µM
TGI (SF-539): 14.1 µM
GI50 (RXF 393): 0.75 µM
TGI (RXF 393): 2.09 µM
CC50 (RXF 393): 5.12 µM
GI50 (SK-MEL-5): 1.58 µM
LC50 (SK-MEL-5): 5.88 µM
TGI (SK-MEL-5): 3.02 µM
GI50 (DU-145): 1.58 µM
LC50 (DU-145): 5.62 µM
TGI (DU-145): 2.95 µM
GI50 (MOLT-4): 3.38 µM
TGI (MOLT-4): > 100 µM
CC50 (MOLT-4; [1]): > 100 µM
GI50 (MDA-MB-231): 1.95 µM
LC50 (MDA-MB-231): 7.24 µM
TGI (MDA-MB-231): 3.71 µM
GI50 (OVCAR-4): 5.49 µM
LC50 (concentration killing 50% of cells) (OVCAR-4): 61.7 µM
TGI (OVCAR-4): 19.9 µM
GI50 (UO-31): 1.58 µM
LC50 (concentration causing 50% net cell kill) (UO-31): 5.88 µM
TGI (UO-31): 3.09 µM
GI50 (SW-620): 1.58 µM
TGI (SW-620): 3.46 µM
CC50 (SW-620): 7.76 µM
GI50 (A549): 3.09 µM
TGI (A549): 10 µM
CC50 (A549): 52.5 µM
GI50 (HCT-116): 1.62 µM
TGI (HCT-116): 3.09 µM
CC50 (HCT-116; [1]): 5.88 µM
GI50 (A498): 2.39 µM
LC50 (lethal concentration, 50% cell kill) (A498): 27.5 µM
TGI (A498): 6.6 µM
GI50 (ACHN): 1.9 µM
TGI (ACHN): 3.71 µM
CC50 (ACHN; [1]): 7.24 µM
GI50 (KM12): 1.82 µM
TGI (KM12): 3.8 µM
CC50 (KM12): 7.94 µM
GI50 (SF-295): 4.36 µM
TGI (SF-295): 17 µM
CC50 (SF-295): 45.7 µM
GI50 (OVCAR-3): 1.58 µM
LC50 (OVCAR-3): 6.45 µM
TGI (OVCAR-3): 3.23 µM
GI50 (LOX IMVI): 1.69 µM
LC50 (LOX IMVI): 6.91 µM
TGI (LOX IMVI): 3.38 µM
GI50 (786-0): 12.3 µM
LC50 (786-0): 57.5 µM
TGI (786-0): 26.9 µM
GI50 (RPMI-8226): 3.31 µM
TGI (RPMI-8226): > 100 µM
CC50 (RPMI-8226): > 100 µM
GI50 (HCC 2998): 1.62 µM
TGI (HCC 2998): 3.16 µM
CC50 (HCC 2998): 6.16 µM
GI50 (HCT-15): 2.39 µM
TGI (HCT-15): 6.91 µM
CC50 (HCT-15; [1]): > 100 µM
GI50 (SK-MEL-2): 1.99 µM
LC50 (concentration killing 50% of cells) (SK-MEL-2): 10 µM
TGI (SK-MEL-2): 4.46 µM
GI50 (PC-3): 2.39 µM
LC50 (concentration causing 50% cell kill) (PC-3): 55 µM
TGI (PC-3): 5.01 µM
GI50 (HOP-62): 2.29 µM
TGI (HOP-62): 4.36 µM
CC50 (HOP-62): 8.31 µM
GI50 (NCI-H322M): 2.29 µM
TGI (NCI-H322M): 5.12 µM
CC50 (NCI-H322M): 15.8 µM
GI50 (IGROV-1): 2.29 µM
LC50 (IGROV-1): 19.9 µM
TGI (IGROV-1): 5.12 µM
GI50 (CCRF-CEM): 2.69 µM
TGI (CCRF-CEM): > 100 µM
CC50 (CCRF-CEM; [1]): > 100 µM
growth at 100 µM (SF-268): 0%
GI50 (UACC-62): 1.86 µM
LC50 (concentration causing 50% net cell kill) (UACC-62): 6.45 µM
TGI (UACC-62): 3.46 µM
GI50 (T47D): 1.95 µM
LC50 (T47D): > 100 µM
TGI (T47D): 4.46 µM
GI50 (EKVX): 1.73 µM
TGI (EKVX): 2.31 µM
CC50 (EKVX): 6.45 µM
